Measured values reported in PubChem BioAssay AID2060614 (Molecular Pharmacology Branch, DTP, NCI, 2025).

Test system: 598228-144-R-J1-PDC complex spheroids, viability
Assay: Anticancer human tumor 598228-144-R-J1-PDC patient-derived serous endometrial adenocarcinoma cell line growth inhibition [CLK]
Details: for IC50: curve of first compound; for viability, T/C: stronger effect = lower value; active means viability on the fitted dose curve at most 10% of control; inactive means the rest
Text: A high-throughput screen of multi-cell type tumor spheroids was designed to identify active combinations of […] and targeted small molecules. Complex spheroids include a stromal component modeled by human endothelial cells (HUVEC) and fibroblasts modeled by human mesenchymal stem cells (MSCs). The concentration ranges selected for each drug and investigational agent were based upon clinically achievable concentrations if the clinical Cmax of the agent was known.
Compounds. The drugs and investigational agents: cirtuvivint (SM08502; NSC835563), CC-671 (NSC850746), vemurafenib (NSC761431), tapotoclax (NSC804041), sotorasib (NSC818433), adagrasib (NSC831453), MRTX-1133 (NSC836407), BAY2416964 (NSC825713), copanlisib (NSC816437), inavolisib (NSC800729), abemaciclib (NSC768073), osimertinib (NSC779217), entinostat (NSC756642), eltanexor (KPT-8602, NSC794443), venetoclax (NSC766270), ceralasertib (NSC777638), bortezomib (NSC756655), olaparib (NSC753686), talazoparib (NSC767125), alisertib (NSC759677), peposertib (NSC802822), gemcitabine (NSC613327), 5-fluorouracil (NSC19893), SN-38 (NSC673596), oxaliplatin (NSC266046), paclitaxel (NSC125973), and doxorubicin (NSC123127), were obtained from the National Cancer Institute (NCI) Developmental Therapeutics Program Chemical Repository. The FDA-approved anticancer drug set is available from the Developmental Therapeutics Program at https://dtp.cancer.gov/organization/dscb/obtaining/available plates.htm. […] The stock solutions were prepared in dimethyl sulfoxide (DMSO, Sigma-Aldrich, St. Louis, MO, cat. D2650), except for the platinum complexes which were prepared in saline (Quality Biological, Gaithersburg, MD, cat. 114-055-101), at 800-fold the tested concentration and stored at -70 degrees C prior to their use. All drugs and investigational agents were tested over a range starting from a high concentration at or near the clinical Cmax and decreasing in half-log increments. If the clinical Cmax for an agent had not been determined, the highest concentration tested was 10 microM.
Cell Culture. All cells were maintained in an incubator at 37 degrees C and 5% CO2 with 95% humidity. The PDC lines were cultured according to standard operating procedures established by the NCI PDMR. Briefly, all PDCs were thawed and cultured in Matrigel-coated flasks prepared with a working solution of 1X Ham's F-12 nutrient mix, without supplementation (Invitrogen, Waltham, MA, cat. 11765054), 100 U/mL penicillin-streptomycin (Invitrogen, cat. 15140122), and 2.5% Matrigel (Corning Inc., Corning, NY, cat. 354248) for the first three passages. The 947758-054-R-J2-PDC line was cultured in 6B/Colon 1A media, which includes advanced DMEM/F-12 (Thermo Fisher Scientific, cat. 12634028), 10 mM HEPES (Thermo Fisher Scientific, cat. 15630080), 1X GlutaMAX supplement (Thermo Fisher Scientific, cat. 35050061), 0.1 mg/mL primocin (InvivoGen, cat. ant-pm-2), 10% defined fetal bovine serum, heat inactivated (HyClone Laboratories Inc., cat. SH30070.03HI), 1.25 mM N-Acetyl-L-cysteine (Sigma-Aldrich, cat. A9165), 10 mM nicotinamide (Sigma-Aldrich, cat. N0636), 1X B-27 supplement (Thermo Fisher Scientific, cat. 17504044), 1X N-2 supplement (Thermo Fisher Scientific, cat. 17502048), and 10 microM Y-27632 dihydrochloride (Tocris Bioscience, cat. 1254). The 876862-298-R-J1-PDC was cultured in 6E media, which includes all 6B/Colon 1A media components plus 50% L-WRN conditioned media (ATCC, cat. CRL-3276), 50 ng/mL recombinant human EGF recombinant protein (hEGF; Thermo Fisher Scientific, cat. PHG0311), 10 ng/mL recombinant human fibroblast growth factor 10 (hGFG-10; PeproTech, cat. 100-26), 1 ng/mL recombinant human fibroblast growth factor 2 (hFGF-2; PeproTech, cat. 100-18B), and 1 µM prostaglandin E2 (PGE2; Tocris, cat. 2296). The 227483-062-R1-J1-PDC line was cultured in Panc media, containing all 6E components except hFGF-2, with the addition of 500 nM SB-431542 (Selleckchem, cat. S1067) and 10 nM gastrin (Tocris, cat. 3006). […]

[1] = second compound 0.0316 µM, first compound 0.0316 µM
[2] = second compound 0.0316 µM, first compound 0.1 µM
[3] = second compound 0.0316 µM, first compound 0.316 µM
[4] = second compound 0.0316 µM, first compound 1 µM
[5] = second compound 0.1 µM, first compound 0.0316 µM
[6] = second compound 0.1 µM, first compound 0.1 µM
[7] = second compound 0.1 µM, first compound 0.316 µM
[8] = second compound 0.1 µM, first compound 1 µM
[9] = second compound 0.316 µM, first compound 0.0316 µM
[10] = second compound 0.316 µM, first compound 0.1 µM
[11] = second compound 0.316 µM, first compound 0.316 µM
[12] = second compound 0.316 µM, first compound 1 µM
[13] = second compound 1 µM, first compound 0.0316 µM
[14] = second compound 1 µM, first compound 0.1 µM
[15] = second compound 1 µM, first compound 0.316 µM
[16] = second compound 1 µM, first compound 1 µM
[17] = second compound 3.16 µM, first compound 0.0316 µM
[18] = second compound 3.16 µM, first compound 0.1 µM
[19] = second compound 3.16 µM, first compound 0.316 µM
[20] = second compound 3.16 µM, first compound 1 µM
[21] = second compound 10 µM, first compound 0.0316 µM
[22] = second compound 10 µM, first compound 0.1 µM
[23] = second compound 10 µM, first compound 0.316 µM
[24] = second compound 10 µM, first compound 1 µM
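Further: spheroids exposed to compounds for seven days before readout.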
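Wherever viability, T/C is given: 100% = DMSO vehicle control wells.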

COc1c(OCCCN2CCOCC2)ccc2c3n(c(=NC(=O)c4cnc(N)nc4)nc12)CCN3 + CNC(=O)c1ccc(Nc2nc(OC3CCCC3)c3c(-c4ccc5nc(C)oc5c4)c[nH]c3n2)c(OC)c1
15.2 nM: IC50 (second compound 1 µM)
10.6 nM: IC50 (second compound 3.16 µM)
active: viability, T/C [4] 9.14% | viability, T/C [8] 5.09% | viability, T/C [12] 5.13% | viability, T/C [15] 8.67% | viability, T/C [16] 5.42% | viability, T/C [19] 7.8% | viability, T/C [20] 3.58% | viability, T/C [23] 6.23% | viability, T/C [24] 5.18%
inactive: viability, T/C (second compound 0.0316 µM, first compound 0.00316 µM) 85.7% | viability, T/C (second compound 0.0316 µM, first compound 0.01 µM) 65.5% | viability, T/C [1] 49% | viability, T/C [2] 26.5% | viability, T/C [3] 15.7% | viability, T/C (second compound 0.1 µM, first compound 0.00316 µM) 104% | viability, T/C (second compound 0.1 µM, first compound 0.01 µM) 74.2% | viability, T/C [5] 51.4% | viability, T/C [6] 25.8% | viability, T/C [7] 13.6% | viability, T/C (second compound 0.316 µM, first compound 0.00316 µM) 97.8% | viability, T/C (second compound 0.316 µM, first compound 0.01 µM) 65.4% | viability, T/C [9] 35.7% | viability, T/C [10] 19.6% | viability, T/C [11] 11.3% | viability, T/C (second compound 1 µM, first compound 0.00316 µM) 86.8% | viability, T/C (second compound 1 µM, first compound 0.01 µM) 61.4% | viability, T/C [13] 29.9% | viability, T/C [14] 16.6% | viability, T/C (second compound 3.16 µM, first compound 0.00316 µM) 73.5% | viability, T/C (second compound 3.16 µM, first compound 0.01 µM) 51.5% | viability, T/C [17] 28.4% | viability, T/C [18] 13.9% | viability, T/C (second compound 10 µM, first compound 0.00316 µM) 71.2% | viability, T/C (second compound 10 µM, first compound 0.01 µM) 50.3% | viability, T/C [21] 24.8% | viability, T/C [22] 12.9%
9.94 nM: IC50 (second compound 10 µM)
30.2 nM: IC50 (second compound 0.1 µM)
26.1 nM: IC50 (second compound 0.0316 µM)
18.4 nM: IC50 (second compound 0.316 µM)

CC(CO)NC(=O)c1cc(-c2ccc(Cl)cc2)nn(-c2cnn(C)c2)c1=O (centres undefined) + CN1CCN(c2cc(C(=O)Nc3cc4cc(-c5cnn(C)c5)ccc4cn3)ccn2)CC1
< 31.6 nM: IC50 (second compound 0.316 µM) | IC50 (second compound 1 µM) | IC50 (second compound 3.16 µM) | IC50 (second compound 10 µM)
active: viability, T/C [13] 2.7% | viability, T/C [14] 2.28% | viability, T/C [15] 1.94% | viability, T/C [16] 1.84% | viability, T/C (second compound 1 µM, first compound 3.16 µM) 2.34% | viability, T/C (second compound 1 µM, first compound 10 µM) 1.94% | viability, T/C [17] 2.22% | viability, T/C [18] 2.04% | viability, T/C [19] 1.99% | viability, T/C [20] 2.65% | viability, T/C (second compound 3.16 µM, first compound 3.16 µM) 2.74% | viability, T/C (second compound 3.16 µM, first compound 10 µM) 2.69% | viability, T/C [21] 1.3% | viability, T/C [22] 1.36% | viability, T/C [23] 2.02% | viability, T/C [24] 1.53% | viability, T/C (second compound 10 µM, first compound 3.16 µM) 3.43% | viability, T/C (second compound 10 µM, first compound 10 µM) 2.58%
> 10000 nM: IC50 (second compound 0.0316 µM) | IC50 (second compound 0.1 µM)
inactive: viability, T/C [1] 129% | viability, T/C [2] 113% | viability, T/C [3] 128% | viability, T/C [4] 120% | viability, T/C (second compound 0.0316 µM, first compound 3.16 µM) 115% | viability, T/C (second compound 0.0316 µM, first compound 10 µM) 108% | viability, T/C [5] 130% | viability, T/C [6] 128% | viability, T/C [7] 135% | viability, T/C [8] 125% | viability, T/C (second compound 0.1 µM, first compound 3.16 µM) 135% | viability, T/C (second compound 0.1 µM, first compound 10 µM) 130% | viability, T/C [9] 21.2% | viability, T/C [10] 17% | viability, T/C [11] 17.9% | viability, T/C [12] 17.5% | viability, T/C (second compound 0.316 µM, first compound 3.16 µM) 18.3% | viability, T/C (second compound 0.316 µM, first compound 10 µM) 18.2%
